# Source: patent US20130005721A1, “INDOLIZINE INHIBITORS OF 5-LIPOXYGENASE” (PANMIRA PHARMACEUTICALS, LLC, priority 2009, published 2013)
# Test system: human leukocytes (LTB4 production, calcium ionophore stimulated)
# Assay: Human Leukocyte LTB4 Inhibition Assay
# Type: cell-based
# Conditions: LTB4 by ELISA, read-out: LTB4 HLA IC50
# Protocol: Human Leukocyte LTB4 Inhibition Assay
# A non-limiting example of a human leukocyte inhibition assay is as follows; Blood was drawn from consenting human volunteers into heparanized tubes and 3% dextran 0.9% saline ⅓ rd volume added. After sedimentation of red blood cells a hypotonic lysis of remaining red blood cells was performed and leukocytes sedimented at 1200 rpm. The pellet was resuspended at 1.25×10^5 cells/ml and aliquoted into wells containing 1 μL 100% DMSO (vehicle) or 2.5 μL drug in 100% DMSO. Samples were incubated for 5 minutes at 37° C. and 2 μL calcium ionophore […] (from a 50 mM DMSO stock diluted just prior to the assay in Hanks balanced salt solution (Invitrogen)) to 1.25 mM) was added, solutions mixed and incubated for 30 minutes at 37° C. Samples were centrifuged at 1,200 rpm (−200×g) for 10 minutes at 4° C., plasma removed and a 1:4 dilution assayed for LTB4 concentration using ELISA (Assay Designs). Drug concentrations to achieve 50% inhibition (IC50's) of vehicle LTB4 were determined by nonlinear regression (Graphpad Prism) of % inhibition versus log drug concentration.
row,IC50 [nM],Compound
1,< 300,"CCC(O)(c1cn(Cc2ccn3c(-c4ccc(F)cc4)c(C(N)=O)cc3c2)nn1)C(F)(F)F (single isomer, unassigned) [Compound 1-10, 3-(4-Fluoro-phenyl)-7-[4-(1-hydroxy-1-trifluoromethyl-propyl)-[1,2,3]triazol-1-ylmethyl]-indolizine-2-carboxylic acid amide]"

# Same assay, conditions: Leukocyte, LTB4 by ELISA, read-out: LTB4 HLA IC50
row,IC50 [nM],Compound
1,< 300,"CCC(O)(c1cn(Cc2ccn3c(C(C)C)c(C#N)cc3c2)nn1)C(F)(F)F (single isomer, unassigned) [Compound 1-81, 7-[4-(1-Hydroxy-1-trifluoromethyl-propyl)-[1,2,3]triazol-1-ylmethyl]-3-isopropyl-indolizine-2-carbonitrile]"
2,> 1000,"CCOc1ccc(-c2c(C(N)=O)cc3cc(Cn4cc(C(O)(CC)C(F)(F)F)nn4)ccn23)cn1 (stereo not drawn) [Compound 1-58, 3-(6-Ethoxy-pyridin-3-yl)-7-[4-(1-hydroxy-1-trifluoromethyl-propyl)-[1,2,3]triazol-1-ylmethyl]-indolizine-2-carboxylic acid amide]"
3,< 300,"CCOc1ccc(-c2c(C#N)cc3cc(Cn4cc(C(O)(CC)C(F)(F)F)nn4)ccn23)cn1 (stereo not drawn) [Compound 1-59, 3-(6-Ethoxy-pyridin-3-yl)-7-[4-(1-hydroxy-1-trifluoromethyl-propyl)-[1,2,3]triazol-1-ylmethyl]-indolizine-2-carbonitrile]"
4,< 300,"CCC(O)(c1cn(Cc2ccn3c(-c4cnc5ccccc5c4)c(C#N)cc3c2)nn1)C(F)(F)F (stereo not drawn) [Compound 1-53, 7-[4-(1-Hydroxy-1-trifluoromethyl-propyl)-[1,2,3]triazol-1-ylmethyl]-3-quinolin-3-yl-indolizine-2-carbonitrile]"
5,< 300,"CCC(O)(c1cn(Cc2ccn3c(-c4cccc(F)c4)c(C(N)=O)cc3c2)nn1)C(F)(F)F (stereo not drawn) [Compound 1-48, 3-(3-Fluoro-phenyl)-7-[4-(1-hydroxy-1-trifluoromethyl-propyl)-[1,2,3]triazol-1-ylmethyl]-indolizine-2-carboxylic acid amide]"
6,< 300,"CCC(O)(c1cn(Cc2ccn3c(-c4ccc(F)cc4)c(C#N)cc3c2)nn1)C(F)(F)F (stereo not drawn) [Compound 1-16, 3-(4-Fluoro-phenyl)-7-[4-(1-hydroxy-1-trifluoromethyl-propyl)-[1,2,3]triazol-1-ylmethyl]-indolizine-2-carbonitrile]"
7,< 300,"CCC(O)(c1cn(Cc2ccn3c(-c4ccc(C)nc4)c(C#N)cc3c2)nn1)C(F)(F)F (single isomer, unassigned) [Compound 1-76, 7-[4-(1-Hydroxy-1-trifluoromethyl-propyl)-[1,2,3]triazol-1-ylmethyl]-3-(6-methyl-pyridin-3-yl)-indolizine-2-carbonitrile]"
8,< 300,"CCOC(=O)c1cc2cc(Cn3cc(C(O)(CC)C(F)(F)F)nn3)ccn2c1-c1ccc(OC)nc1 (stereo not drawn) [Compound 1-36, 7-[4-(1-Hydroxy-1-trifluoromethyl-propyl)-[1,2,3]triazol-1-ylmethyl]-3-(6-methoxy-pyridin-3-yl)-indolizine-2-carboxylic acid ethyl ester]"
9,> 1000,"CCC(O)(c1cn(Cc2ccn3c(-c4ccc(F)nc4)c(C(N)=O)cc3c2)nn1)C(F)(F)F (stereo not drawn) [Compound 1-31, 3-(6-Fluoro-pyridin-3-yl)-7-[4-(1-hydroxy-1-trifluoromethyl-propyl)-[1,2,3]triazol-1-ylmethyl]-indolizine-2-carboxylic acid amide]"
10,< 300,"CCOC(=O)c1cc2cc(Cn3cc(C(O)(CC)C(F)(F)F)nn3)ccn2c1-c1ccc(C)nc1 (stereo not drawn) [Compound 1-69, 7-[4-(1-Hydroxy-1-trifluoromethyl-propyl)-[1,2,3]triazol-1-ylmethyl]-3-(6-methyl-pyridin-3-yl)-indolizine-2-carboxylic acid ethyl ester]"

# Second part, the compound before the results:
row,Compound,IC50 [nM]
1,"CCOC(=O)c1cc2cc(Cn3cc(C(O)(CC)C(F)(F)F)nn3)ccn2c1C(C)C (single isomer, unassigned) [Compound 1-77, 7-[4-(1-Hydroxy-1-trifluoromethyl-propyl)-[1,2,3]triazol-1-ylmethyl]-3-isopropyl-indolizine-2-carboxylic acid ethyl ester]",< 300
2,"CCOC(=O)CCNCc1cc2cc(Cn3cc(C(O)(CC)C(F)(F)F)nn3)ccn2c1-c1ccc(F)cc1 (stereo not drawn) [Compound 1-37, 3-({3-(4-Fluoro-phenyl)-7-[4-(1-hydroxy-1-trifluoromethyl-propyl)-[1,2,3]triazol-1-ylmethyl]-indolizin-2-ylmethyl}-amino)-propionic acid ethyl ester]",< 300
3,"CCC(O)(c1cn(Cc2ccn3c(-c4ccc(Cl)cc4)c(C(N)=O)cc3c2)nn1)C(F)(F)F (stereo not drawn) [Compound 1-28, 3-(4-Chloro-phenyl)-7-[4-(1-hydroxy-1-trifluoromethyl-propyl)-[1,2,3]triazol-1-ylmethyl]-indolizine-2-carboxylic acid amide]",< 300
4,"CCOC(=O)c1c(C(=O)C(F)(F)F)c2cc(Cn3cc(C(CC)(OC(=O)c4ccc([N+](=O)[O-])cc4)C(F)(F)F)nn3)ccn2c1-c1ccc(OC)nc1 (single isomer, unassigned) [Compound 1-84, 3-(6-Methoxy-pyridin-3-yl)-7-{4-[1-(4-nitro-benzoyloxy)-1-trifluoromethyl-propyl]-[1,2,3]triazol-1-ylmethyl}-1-(2,2,2-trifluoro-acetyl)-indolizine-2-carboxylic acid ethyl ester]",300 to 1000
5,"CCOC(=O)c1cc2cc(Cn3cc(C(CC)(OC(=O)c4ccc([N+](=O)[O-])cc4)C(F)(F)F)nn3)ccn2c1-c1ccc(OC)nc1 (single isomer, unassigned) [Compound 1-85, 3-(6-Methoxy-pyridin-3-yl)-7-{4-[1-(4-nitro-benzoyloxy)-1-trifluoromethyl-propyl]-[1,2,3]triazol-1-ylmethyl}-indolizine-2-carboxylic acid ethyl ester]",300 to 1000
6,"CCC(O)(c1cn(Cc2ccn3c(-c4ccc(F)cc4)c(-c4nn[nH]n4)cc3c2)nn1)C(F)(F)F (stereo not drawn) [Compound 1-23, 1,1,1-Trifluoro-2-{1-[3-(4-fluoro-phenyl)-2-(2H-tetrazol-5-yl)-indolizin-7-ylmethyl]-1H-[1,2,3]triazol-4-yl}-butan-2-ol]",> 1000
7,"CCC(O)(c1cn(Cc2ccn3c(Cl)c(C(N)=O)cc3c2)nn1)C(F)(F)F (single isomer, unassigned) [Compound 1-89, 3-Chloro-7-[4-(1-hydroxy-1-trifluoromethyl-propyl)-[1,2,3]triazol-1-ylmethyl]-indolizine-2-carboxylic acid amide]",> 1000
8,"CCC(O)(c1cn(Cc2ccn3c(-c4ccc(F)cc4)c(C(C)(C)O)cc3c2)nn1)C(F)(F)F (stereo not drawn) [Compound 1-7, 1,1,1-Trifluoro-2-{1-[3-(4fluoro-phenyl)-2-(1-hydroxy-1-methyl-ethyl)-indolizin-7-ylmethyl]-1H-[1,2,3]triazol-4-yl}-butan-2-ol]",< 300
9,"CCOC(=O)c1cc2cc(Cn3cc(C(O)(CC)C(F)(F)F)nn3)ccn2c1-c1ccc(Cl)cc1 (stereo not drawn) [Compound 1-27, 3-(4-Chloro-phenyl)-7-[4-(1-hydroxy-1-trifluoromethyl-propyl)-[1,2,3]triazol-1-ylmethyl]-indolizine-2-carboxylic acid ethyl ester]",< 300
10,"CCC(O)(c1cn(Cc2ccn3c(-c4ccc(F)cc4)c(CNCCC(=O)O)cc3c2)nn1)C(F)(F)F (stereo not drawn) [Compound 1-40, 3-({3-(4-Fluoro-phenyl)-7-[4-(1-hydroxy-1-trifluoromethyl-propyl)-[1,2,3]triazol-1-ylmethyl]-indolizin-2-ylmethyl}-amino)-propionic acid]",> 1000
11,"CCC(O)(c1cn(Cc2ccn3c(-c4ccc(F)cc4)c(C(C)=O)cc3c2)nn1)C(F)(F)F (stereo not drawn) [Compound 1-54, 1-{3-(4-Fluoro-phenyl)-7-[4-(1-hydroxy-1-trifluoromethyl-propyl)-[1,2,3]triazol-1-ylmethyl]-indolizin-2-yl}-ethanone]",< 300
12,"CCC(O)(c1cn(Cc2ccn3c(-c4ccc(F)cc4)c(C(=O)N4CCS(=O)(=O)C4)cc3c2)nn1)C(F)(F)F (stereo not drawn) [Compound 1-50, (1,1-Dioxo-1λ^6-thiazolidin-3-yl)-{3-(4-fluoro-phenyl)-7-[4-(1-hydroxy-1-trifluoromethyl-propyl)-[1,2,3]triazol-1-ylmethyl]-indolizin-2-yl}-methanone]",> 1000
13,"CCOC(=O)c1cc2cc(Sc3ncc(C(O)(CC)C(F)(F)F)s3)ccn2c1 (stereo not drawn) [Compound 1-1, 7-[5-(1-Hydroxy-1-trifluoromethyl-propyl)-thiazol-2-ylsulfanyl]-indolizine-2-carboxylic acid ethyl ester]",< 300
14,"CCC(O)(c1cn(Cc2ccn3c(-c4ccc(F)cc4)c(/C=C/C(=O)O)cc3c2)nn1)C(F)(F)F (stereo not drawn) [Compound 1-41, (E)-3-{3-(4-Fluoro-phenyl)-7-[4-(1-hydroxy-1-trifluoromethyl-propyl)-[1,2,3]triazol-1-ylmethyl]-indolizin-2-yl}-acrylic acid]",300 to 1000
15,"CCOC(=O)c1cc2cc(Cn3cc(C(O)(CC)C(F)(F)F)nn3)ccn2c1-c1cnn(C)c1 (stereo not drawn) [Compound 1-74, 7-[4-(1-Hydroxy-1-trifluoromethyl-propyl)-[1,2,3]triazol-1-ylmethyl]-3-(1-methyl-1H-pyrazol-4-yl)-indolizine-2-carboxylic acid ethyl ester]",< 300
16,"CCC(O)(c1cn(Cc2ccn3c(-c4ccc(=O)n(C)c4)c(C(N)=O)cc3c2)nn1)C(F)(F)F (stereo not drawn) [Compound 1-68, 7-[4-(1-Hydroxy-1-trifluoromethyl-propyl)-[1,2,3]triazol-1-ylmethyl]-3-(1-methyl-6-oxo-1,6-dihydro-pyridin-3-yl)-indolizine-2-carboxylic acid amide]",> 1000
